According to patent US20250041284A1, “TREATMENT OF NEUROLOGICAL DISORDERS” (Praxis Precision Medicines, Inc., priority 2022, published 2025):
Entries after “also recorded” stand apart in the source; their conditions may differ.

Tests used:
[1] = test system: MES-induced tonic hindlimb extension in male CD-1 mice; assay: MES acute seizure model, protection from tonic hindlimb extension (Example 9); type: in vivo, mouse
Description: Male CD-1 mice (Vital River, Beijing, China) approximately 6 weeks old were obtained for the study. Body weights were between 20.5 grams and 38.5 grams at the time the experiments were carried out. […] Food and water were available ad libitum.
Treatment was conducted using Compound 1 and 35% 2-hydroxypropyl-β-cyclodextrin (35% HPBCD, used as a negative control). Compound 1 stock solution was prepared fresh each experiment day in 35% HPBCD and protected from light. The stock solution was diluted with vehicle for lower doses.
Mice were brought to the test room at least one hour before the start of the experiment. Mice were administered valproate (VPA; 400 mg/kg, intraperitoneally); or vehicle (35% HPBCD, 10 mL/kg, intraperitoneally); or Compound 1 (0.3 mg/kg, 1 mg/kg, 3 mg/kg or 10 mg/kg, orally) 30 minutes prior to the MES test.
The electroshock apparatus was set to deliver a 50 mA square-wave stimulus, with a 0.8 second duration, a pulse width of 10 milliseconds, and a frequency of 50 Hz. A pair of custom stainless-steel electrodes were soaked in 0.2% agar, and then the subject received bilateral transauricular stimulation through ear-clip electrodes. During the stimulation, mice were manually restrained then released immediately into an observation cage where they were monitored continuously for 60 seconds by an observer blinded to treatment group.
Mice were anesthetized with CO2 and terminal plasma and brain tissue samples were collected. […] The supernatant plasma was pipetted into Eppendorf tubes.
All statistical analyses were conducted using GraphPad Prism 9.3. Means were combined and standard error was calculated using the Satterthwaite Approximation to combine standard deviations. […] ED50 and EC50 values were calculated from these fit curves.

hNaV1.6 = target: T1, hNaV1.6 (Homo sapiens, UniProt Q9UQD0); assay: Peak INa voltage-dependent block (VDB), automated patch clamp in HEK cells; type: cell-based
T1 construct: expressed in transfected cells; host or cells: HEK cells
T1 sequence (Q9UQD0 whole entry): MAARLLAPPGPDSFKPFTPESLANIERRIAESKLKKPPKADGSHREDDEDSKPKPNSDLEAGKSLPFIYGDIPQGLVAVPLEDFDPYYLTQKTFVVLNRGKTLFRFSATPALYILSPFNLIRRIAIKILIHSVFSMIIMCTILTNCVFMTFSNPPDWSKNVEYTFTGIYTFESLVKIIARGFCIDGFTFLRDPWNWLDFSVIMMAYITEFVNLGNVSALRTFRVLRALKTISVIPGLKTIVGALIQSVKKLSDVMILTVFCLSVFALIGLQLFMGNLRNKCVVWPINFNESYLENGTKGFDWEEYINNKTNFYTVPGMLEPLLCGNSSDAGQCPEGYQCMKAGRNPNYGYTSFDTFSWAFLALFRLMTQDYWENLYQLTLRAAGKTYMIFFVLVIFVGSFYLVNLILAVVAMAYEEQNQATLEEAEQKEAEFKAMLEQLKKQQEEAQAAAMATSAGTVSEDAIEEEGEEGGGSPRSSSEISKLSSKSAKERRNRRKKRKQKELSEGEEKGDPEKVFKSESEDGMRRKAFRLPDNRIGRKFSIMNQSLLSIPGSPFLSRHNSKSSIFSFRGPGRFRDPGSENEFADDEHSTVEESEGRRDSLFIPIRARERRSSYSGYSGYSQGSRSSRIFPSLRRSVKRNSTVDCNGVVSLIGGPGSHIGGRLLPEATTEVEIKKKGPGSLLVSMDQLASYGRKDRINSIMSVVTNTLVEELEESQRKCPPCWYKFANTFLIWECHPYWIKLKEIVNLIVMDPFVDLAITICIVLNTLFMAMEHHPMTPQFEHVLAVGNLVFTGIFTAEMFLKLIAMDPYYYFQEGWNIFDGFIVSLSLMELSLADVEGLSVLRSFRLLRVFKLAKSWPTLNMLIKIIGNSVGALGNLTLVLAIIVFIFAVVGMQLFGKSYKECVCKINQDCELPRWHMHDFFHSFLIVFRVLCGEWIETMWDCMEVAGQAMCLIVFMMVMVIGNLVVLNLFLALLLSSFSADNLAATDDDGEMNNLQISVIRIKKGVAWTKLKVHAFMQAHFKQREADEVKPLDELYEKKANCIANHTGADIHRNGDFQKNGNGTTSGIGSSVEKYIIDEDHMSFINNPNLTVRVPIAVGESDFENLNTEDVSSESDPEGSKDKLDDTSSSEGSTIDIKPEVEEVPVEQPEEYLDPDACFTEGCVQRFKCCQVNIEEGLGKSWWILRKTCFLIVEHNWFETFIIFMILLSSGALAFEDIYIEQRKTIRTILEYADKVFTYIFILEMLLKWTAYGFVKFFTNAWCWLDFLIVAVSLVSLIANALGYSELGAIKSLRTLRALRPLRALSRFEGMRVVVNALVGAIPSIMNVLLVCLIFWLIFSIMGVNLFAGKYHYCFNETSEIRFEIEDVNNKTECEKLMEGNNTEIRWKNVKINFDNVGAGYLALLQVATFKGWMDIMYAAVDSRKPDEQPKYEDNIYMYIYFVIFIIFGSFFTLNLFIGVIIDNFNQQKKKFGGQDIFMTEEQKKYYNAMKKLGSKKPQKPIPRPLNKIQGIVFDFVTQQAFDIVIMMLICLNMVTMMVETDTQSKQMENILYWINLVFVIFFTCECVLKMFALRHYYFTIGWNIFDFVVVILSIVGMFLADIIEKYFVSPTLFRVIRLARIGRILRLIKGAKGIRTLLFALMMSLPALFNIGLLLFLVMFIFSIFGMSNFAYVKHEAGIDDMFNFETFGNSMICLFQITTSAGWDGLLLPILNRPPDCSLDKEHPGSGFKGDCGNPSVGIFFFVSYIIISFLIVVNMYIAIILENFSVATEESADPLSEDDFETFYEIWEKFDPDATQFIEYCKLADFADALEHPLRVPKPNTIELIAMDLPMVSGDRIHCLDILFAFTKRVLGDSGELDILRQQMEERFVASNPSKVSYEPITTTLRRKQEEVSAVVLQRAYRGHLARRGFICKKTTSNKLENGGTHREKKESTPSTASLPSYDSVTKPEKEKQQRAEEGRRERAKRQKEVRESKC

[2] = test system: psychomotor seizures induced by 6-Hz electrical stimulation in wild-type CD-1 mice; assay: 6-Hz psychomotor seizure model; type: in vivo, mouse; design: EC50 value, protection from psychomotor seizures: unit not given here
Text: This study evaluated the efficacy of Compound 1 in attenuating psychomotor seizures induced by 6-Hz electrical stimulation at two different stimulation intensities (32 and 44 mA) in wild-type CD-1 mice. Psychomotor seizures are defined as the expression of at least one of the following behaviors: stun/immobility, forelimb clonus, straub tail or lateral head movement within 30 seconds of the stimulus. Protection is defined as a complete absence of the above behaviors within 30 seconds of the stimulus. Doses of Compound 1 used were 1 mg/kg, 3 mg/kg and 6 mg/kg administered orally. Valproate (600 mg/kg, administered intraperitoneally) was used as a positive control.
Male CD-1 mice (Charles River Laboratories; St. Constant, Quebec, CAN) were used for the study. Body weights at the time the experiment was carried out were 30-40 grams. The mice were group-housed in polycarbonate cages according to standard operating procedures. Animals were maintained on a 12-hour light/12 hour dark cycle, with all experimental activities occurring during the light phase. Food and water were available ad libitum. Mice acclimated to the test facility for at least 72 hours prior to testing.
Treatment was conducted using Compound 1 and 35% 2-hydroxypropyl-β-cyclodextrin (35% HPBCD, used as a negative control). Compound 1 stock solution was prepared fresh each experiment day in 35% HPBCD. […] Valproate was prepared fresh each experiment day in a vehicle of saline and dosed at 10 mL/kg.
Mice were administered vehicle (35% HPBCD), a single dose of Compound 1 (1 mg/kg, 3 mg/kg or 6 mg/kg) or valproate (600 mg/kg). Vehicle and Compound 1 were administered via oral gavage 30 minutes prior to […]. Valproate was administered as an intraperitoneal injection 60 minutes prior to the electrical stimulus.
Immediately prior to conducting the 6-Hz seizure test, a brief neurological assessment was performed. Each animal was visually assessed and received a score from 0 to 3 according to the following scoring system::neurological score of 0 corresponds to a normal status; neurological score of 1 corresponds to a modest decrease in spontaneous activity; neurological score of 2 corresponds to a marked decrease in spontaneous activity; and neurological score of 3 corresponds to loss of righting reflex.
Corneal electrodes moistened with saline (ECT unit 57800; Ugo Basile) were used to deliver the electrical stimulus (6-Hz, 0.2 millisecond pulse width, 3 seconds duration). The current delivered was either 32 mA or 44 mA. Immediately after the electrical stimulus, each mouse was monitored continuously for 30 seconds by an observer blinded to the treatment group. […] Mice were scored for the presence or absence of each seizure behavior, with a maximum total score of 4. […] At the end of the 6-Hz seizure test, plasma and brain samples were collected.
Mice were anesthetized with isoflurane, whole blood was collected via cardiac puncture and brains were harvested. Whole blood was collected in potassium EDTA tubes and centrifuged at ˜3300 g for 5 minutes at 4° C. to isolate plasma. Plasma and brain samples were stored at −80° C. and analyzed to determine levels of Compound 1.
All statistical analyses were conducted using GraphPad Prism 9.3. Seizure scores were compared using Kruskal-Wallis test, followed by Dunn's post hoc and p<0.05 was considered statistically significant.

human NaV1.6 = target: T2, human NaV1.6 (Homo sapiens, UniProt Q9UQD0); assay: Peak INa tonic block (TB), automated patch clamp in HEK cells; type: cell-based
T2 construct: HEK-293 cell lines stably expressing human NaV1.6 (NP_055006) were used; expressed in transfected cells
T2 sequence (Q9UQD0 whole entry): as above

Q: CCOC(F)(F)c1nnc2ccc(-c3cnc(OCC(F)(F)F)c(F)c3)cn12 [Compound 1] was tested. Which “sedation or ataxia before MES test” value ([1]; 10 mg/kg orally) did it give?
A: some mice showed sedation or ataxia; also recorded: six of thirty mice showed mild to moderate sedation

Q: And the “sedation or ataxia before MES test” value ([1]; 0.3 to 3 mg/kg orally)?
A: No sedation or ataxia was observed; also recorded: No sedation was observed

Q: What about the ED50 ([1]; Mus musculus, administered dose) of the same molecule?
A: 0.42 mg/kg

Q: And the “Ratio to Pers. INa (Peak INa VDB)” value (hNaV1.6; VDB IC50 / persistent INa IC50)?
A: 0.56

Q: What about the “Peak INa VDB Hill slope” value (hNaV1.6; voltage-dependent block) of the same molecule?
A: (1.0)

Q: What about the IC50 (hNaV1.6; voltage-dependent block, Vm inactivation V1/2) of the same molecule?
A: 0.072 µM

Q: And the seizure score ([2]; 6 mg/kg orally, 32 and 44 mA)?
A: significantly reduced the seizure score; also recorded: reduced seizure scores

Q: What about the “neurological scores before 6-Hz test” value ([2]; 1, 3, 6 mg/kg orally) of the same molecule?
A: all neurological scores were zero; also recorded: Neurological scores for all doses of Compound 1 tested were normal

Q: What about the “Plasma EC50” value ([2]; 32 mA, 95% confidence interval in parentheses) of the same molecule?
A: 385 (383-386) ng/mL

Q: And the “Plasma EC50” value ([2]; 44 mA)?
A: >441 ng/mL

Q: What about the ED50 ([2]; Mus musculus, dose-response curve, read-out: ED50 value, protection from psychomotor seizures) of the same molecule?
A: 1.9 mg/kg

Q: And the “EC50 value, protection from psychomotor seizures” value ([2]; plasma concentration-response curve)?
A: 147

Q: What about the “Ratio to Pers. INa (Peak INa TB)” value (human NaV1.6; peak INa TB IC50 / persistent INa IC50) of the same molecule?
A: 68

Q: What about the “Peak INa TB Hill slope” value (human NaV1.6; tonic block) of the same molecule?
A: (1.0)

Q: And the IC50 (human NaV1.6; tonic block, Vm -120 mV, 0.2 Hz)?
A: 8.71 µM
